Measurements: US8952024B2, “Herbicidal pyrimidone derivatives” (E I du Pont de Nemours and Company, priority 2009, dated 2015)

Legend:
Format in all cases: in vivo
[1] = test system: woolly cupgrass (Eriochloa villosa); assay: Test B pre-/postemergence plant response
Procedure, shortened: (§1)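 Compound in solvent + surfactant applied pre-em (loam/sand) or post-em (plants 2–18 cm, peat medium); greenhouse hold 13–15 days; visual 0–100 control score.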

[2] = test system: goosegrass (Eleusine indica); assay: Test B pre-/postemergence plant response
Procedure, shortened: as §1

[3] = test system: wheat (Triticum aestivum); assay: Test B pre-/postemergence plant response
Procedure, shortened: as §1

[4] = test system: morningglory (Ipomoea coccinea); assay: Test B pre-/postemergence plant response
Procedure, shortened: as §1

[5] = test system: johnsongrass (Sorghum halepense); assay: Test B pre-/postemergence plant response
Procedure, shortened: as §1

[6] = test system: giant foxtail (Setaria faberii); assay: Test B pre-/postemergence plant response
Procedure, shortened: as §1

[7] = test system: barnyardgrass (Echinochloa crus-galli); assay: Test B flooded paddy test; conditions: for Plant response rating, Barnyardgrass: Flood (flooded paddy test), 13 to 15 days
Procedure, shortened: (§2)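 Post-flood paddy application: compounds are introduced into water 3 cm deep over the soil, reaching plants at the 2-leaf stage. The water level is maintained, and after 13–15 days under greenhouse conditions, response is judged by eye relative to controls, where 100 means complete control.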

[8] = test system: rice (Oryza sativa); assay: Test B flooded paddy test; conditions: for Plant response rating, Rice: Flood (flooded paddy test), 13 to 15 days
Procedure, shortened: as §2

[9] = test system: ducksalad (Heteranthera limosa); assay: Test B flooded paddy test; conditions: for Plant response rating, Ducksalad: Flood (flooded paddy test), 13 to 15 days
Procedure, shortened: as §2

[10] = test system: umbrella sedge (Cyperus difformis); assay: Test B flooded paddy test; conditions: for Plant response rating, Sedge, Umbrella: Flood (flooded paddy test), 13 to 15 days
Procedure, shortened: as §2

[11] = test system: pigweed (Amaranthus retroflexus); assay: Test A pre-/postemergence plant response
Procedure, shortened: (§3)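 Plants grown from seed in a loam soil and sand mix received test compounds both as a preemergence soil spray and, at the same time, as a postemergence spray at the one- to two-leaf stage. Injury was judged visually against untreated controls roughly ten days later, 0 meaning no effect and 100 complete control.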

[12] = test system: morningglory (Ipomoea spp.); assay: Test A pre-/postemergence plant response
Procedure, shortened: as §3

[13] = 250 g ai/ha, Preemergence, 0 to 100 scale
[14] = Postemergence, 31 g ai/ha, scale 0 to 100 (0 no effect, 100 complete control)
[15] = Postemergence, 62 g ai/ha, scale 0 (no effect) to 100 (complete control), 13 to 15 days
[16] = Postemergence, 125 g ai/ha, visual rating after 13 to 15 days, scale 0 (no effect) to 100 (complete control)
[17] = Postemergence, 250 g ai/ha, scale 0 to 100
[18] = Preemergence, 31 g ai/ha, scale 0 to 100 (0 no effect, 100 complete control)
[19] = Preemergence, 62 g ai/ha, scale 0 to 100, 0 no effect, 100 complete control
[20] = Preemergence, 125 g ai/ha, 0 to 100 scale
[21] = 250 g ai/ha, flooded paddy test, visual rating on 0 to 100 scale (0 no effect, 100 complete control) after 13 to 15 days
[22] = 31 g ai/ha, scale of 0 to 100 where 0 is no effect and 100 is complete control
[23] = 62 g ai/ha, scale 0 to 100, 0 is no effect, 100 is complete control
[24] = 125 g ai/ha, scale 0 to 100, 0 is no effect, 100 is complete control
[25] = Postemergence, 125 g ai/ha, visual injury, 0 to 100 scale (0 no effect, 100 complete control), approx. ten days
[26] = Postemergence, 500 g ai/ha, 0 to 100 scale, 0 = no effect, 100 = complete control, approx. ten days
[27] = Preemergence, 125 g ai/ha, 0 to 100 scale, 0 = no effect, 100 = complete control
[28] = Preemergence, 500 g ai/ha, visual injury, 0 to 100 scale (0 no effect, 100 complete control), approx. ten days

O=C1CCCC(O)=C1C(=O)c1cnc(-c2ccccc2)n(-c2ccccc2Br)c1=O [Compound 37]
Plant response rating, Cupgrass, Woolly [1, 13]: 70
Plant response rating, Cupgrass, Woolly [1, 14]: 55
Plant response rating, Cupgrass, Woolly [1, 15]: 65
Plant response rating, Cupgrass, Woolly [1, 16]: 75
Cupgrass, Woolly plant response rating [1, 17]: 100
Plant response rating, Cupgrass, Woolly [1, 18]: 0
Plant response rating, Cupgrass, Woolly [1, 19]: 0
Cupgrass, Woolly plant response rating [1, 20]: 10
Plant response rating, Goosegrass [2, 13]: 100
Plant response rating, Goosegrass [2, 15]: 85
Plant response rating, Goosegrass [2, 16]: 85
Goosegrass plant response rating [2, 17]: 95
Plant response rating, Goosegrass [2, 18]: 0
Goosegrass plant response rating [2, 20]: 80
Plant response rating, Wheat [3, 13]: 0
Plant response rating, Wheat [3, 15]: 0
Plant response rating, Wheat [3, 16]: 0
Plant response rating, Wheat [3, 18]: 0
Wheat plant response rating [3, 20]: 0
Plant response rating, Morningglory [4, 13]: 0
Plant response rating, Morningglory [4, 15]: 70
Plant response rating, Morningglory [4, 16]: 75
Plant response rating, Morningglory [4, 18]: 0
Plant response rating, Morningglory [4, 19]: 0
Morningglory plant response rating [4, 20]: 0
Plant response rating, Johnsongrass [5, 13]: 90
Plant response rating, Johnsongrass [5, 15]: 40
Plant response rating, Johnsongrass [5, 16]: 60
Johnsongrass plant response rating [5, 17]: 85
Plant response rating, Johnsongrass [5, 18]: 0
Plant response rating, Johnsongrass [5, 19]: 0
Johnsongrass plant response rating [5, 20]: 45
Plant response rating, Foxtail, Giant [6, 13]: 75
Plant response rating, Foxtail, Giant [6, 14]: 70
Plant response rating, Foxtail, Giant [6, 15]: 85
Plant response rating, Foxtail, Giant [6, 16]: 95
Foxtail, Giant plant response rating [6, 17]: 100
Plant response rating, Foxtail, Giant [6, 18]: 0
Plant response rating, Foxtail, Giant [6, 19]: 0
Foxtail, Giant plant response rating [6, 20]: 0
Plant response rating, Flood, Barnyardgrass [7, 21]: 0
Plant response rating, Barnyardgrass [7, 22]: 0
Plant response rating, Barnyardgrass [7, 23]: 0
Plant response rating, Barnyardgrass [7, 24]: 0
Plant response rating, Flood, Rice [8, 21]: 20
Plant response rating, Rice [8, 22]: 0
Plant response rating, Rice [8, 23]: 0
Plant response rating, Rice [8, 24]: 0
Plant response rating, Flood, Ducksalad [9, 21]: 60
Plant response rating, Ducksalad [9, 22]: 0
Plant response rating, Ducksalad [9, 23]: 30
Plant response rating, Ducksalad [9, 24]: 50
Plant response rating, Flood, Sedge, Umbrella [10, 21]: 40
Plant response rating, Sedge, Umbrella [10, 22]: 0
Plant response rating, Sedge, Umbrella [10, 23]: 20
Plant response rating, Sedge, Umbrella [10, 24]: 30
Pigweed plant response rating [11, 25]: 100
Plant response rating, Pigweed [11, 26]: 100
Plant response rating, Pigweed [11, 27]: 50
Plant response rating, Pigweed [11, 28]: 100
Morningglory plant response rating [12, 25]: 80
Plant response rating, Morningglory [12, 26]: 100
Plant response rating, Morningglory [12, 27]: 0
Plant response rating, Morningglory [12, 28]: 30
